Patent publication US20020045780A1, “Biologically active spermidine analogues, pharmaceutical compositions and methods of treatment” (priority 1997, published 2002)
“Also recorded” adds a separate entry of the source. Counter-ions that a name gives are not always drawn. Like-named read-outs stand apart in the source and are kept apart here.

Assays:
L1210 cells [1] = assay: Metabolic transformation of polyamine analogues by L1210 cells; assay type: in vitro ADME, murine; details: 48 hours
Method: (§1) The cells were washed twice with cold RPMI-1640, and the pellet was treated with 0.6 N HClO4 (1 ml/10^7 cells). Polyamine contents of the perchloric acid extracts were quantitated by HPLC of the DANSYL derivatives [Bergeron et al, J. Med. Chem., Vol. 37, supra].

L1210 cells [2] = assay: L1210 growth inhibition, IC50 determination; assay type: cell-based, murine
Method: Murine L1210 leukemia cells (ATCC CCL 219) were maintained in logarithmic growth in RPMI-1640 medium containing 10% fetal calf serum or a semi-synthetic equivalent, NuSerum, 2% HEPES-MOPS buffer and 1 mM aminoguanidine.

[3] = test system: ornithine decarboxylase (ODC); assay: ODC activity in treated L1210 cells; assay type: cell-based, murine; details: L1210, 1 μM at 4 hours
Method: (§2) On the basis of these studies, it was elected to evaluate the impact of the triamines on ODC and AdoMetDC at 4 and 6 hours, respectively.
(§3) ODC and AdoMetDC activities were determined as ^14CO2 released from [^14C]-carboxyl-labeled L-ornithine [Seely et al, “Ornithine Decarboxylase (Mouse Kidney),” Methods Enzymol., Vol. 94, pages 158-161 (1983)] or S-adenosyl-L-methionine [Pegg et al, “S-Adenosylmethionine Decarboxylase (Rat Liver),” Methods Enzymol., Vol. 94, pages 234-239 (1983)], respectively. Included in each assay were untreated L1210 cells as controls, as well as cells treated with DEHSPM, a drug having a known reproducible effect on each enzyme, as positive controls.

[4] = test system: polyamine transport apparatus; assay: Competitive uptake determination: inhibition of [3H]spermidine transport into L1210 cells; assay type: cell-based, murine; details: analogue inhibition of spermidine transport
Method: The ability of the norspermidines, spermidines, homospermidines, 4,5- and 5,5-triamines to compete with radiolabeled SPD for uptake was evaluated (Table 1). The general trend is that the terminally alkylated triamines have higher Ki values than the unalkylated triamines and are thus less easily taken up by the cell. […] This is not completely true with the norspermidines and the 5,5 triamines. The relationship holds with methyl and ethyl but not for the propyl of the latter two systems. Finally, the number of methylenes separating the amines plays a role in determining polyamine uptake properties. In general the effectiveness with which the analogues compete for uptake is spermidines≈homospermidines>4,5 triamines>5,5 triamines>norspermidine.
The polyamine derivatives were studied for their ability to compete with [^3H]-SPD for uptake into L1210 cells [Bergeron et al, J. Med. Chem., Vol. 37, supra]. Lineweaver-Burk plots indicated a simple competitive inhibition with respect to SPD.

[5] = test system: S-adenosylmethionine decarboxylase (AdoMetDC); assay: AdoMetDC activity in treated L1210 cells; assay type: cell-based, murine; details: L1210, 1 μM at 6 hours
Method: as §2, §3

[6] = test system: spermidine/spermine acetyltransferase (SSAT); assay: SSAT activity in treated L1210 cells; assay type: cell-based, murine; details: L1210, 10 μM at 48 hours (triamine analogues)
Description: Spermidine/spermine N^1-acetyltransferase activity was based on quantitation of [^14C]-N^1-acetylspermidine formed by acetylation of SPD with [^14C] acetyl coenzyme A according to the method of Libby et al [Biochem. Pharmacol., Vol. 38, supra]. Cells treated with DENSPM were positive controls.

L1210 cells [7] = assay: Polyamine pool analysis in L1210 cells; assay type: cell-based, murine; details: for activity at 100 µM / activity at 500 µM / activity at 2 µM / activity at 10 µM: Mus musculus, L1210, 48 h, % of untreated control; for Analogue: intracellular amount, 48 hours
Method: The following guidelines were adopted for studying the impact of the analogues on polyamine pools (Table 2). The measurements were made after a 48-hour exposure to the analogue, and two different concentrations of analogue were evaluated in each case.
as §1

[8] = Mus musculus, L1210, 48 h, L1210, 48 hour exposure, read-out: IC50 48 hour
[9] = Mus musculus, L1210, 96 h, L1210, 96 hour exposure, read-out: IC50 96 hour

SMILES | Parent drug as % of total drug in the cell (L1210 cells [1]; 100 μM analogue) [%] | Parent drug in L1210 cells (L1210 cells [1]; 100 μM analogue) [pmols/10^6] | IC50 (L1210 cells [2]; [8]) [µM] | IC50 (L1210 cells [2]; [9]) [µM] | ODC activity, percent of untreated control [3] | Ki [4] [µM] | AdoMetDC activity, percent of untreated control [5] | SSAT activity, percent of untreated control [6] | activity at 100 µM (L1210 cells [7]; 100 μM, read-out: Put) [%] | activity at 100 µM (L1210 cells [7]; 100 μM, read-out: Spd) [%] | activity at 100 µM (L1210 cells [7]; 100 μM, read-out: Spm) [%] | activity at 500 µM (L1210 cells [7]; 500 μM, read-out: Put) [%] | activity at 500 µM (L1210 cells [7]; 500 μM, read-out: Spd) [%] | activity at 500 µM (L1210 cells [7]; 500 μM, read-out: Spm) [%] | Analogue (L1210 cells [7]; 100 μM) [nmol/10^6 cells] | Analogue (L1210 cells [7]; 500 μM) [nmol/10^6 cells] | further results
CCCNCCCCCNCCCCNCCC [DP(4,5), 4,9,15-Triazaoctadecane Trihydrochloride] | 69.7 | 1325 | ~100 | < 2 | 83% of untreated control | 75 | 86% of untreated control | 80% of untreated control | 0 | 40 | 119 | 0 | 31 | 121 | 1.40 | 2.42 | Elaboration to tetraamine (result in words) (L1210 cells [1]; 100 μM analogue): no elaboration of N-Monoalkyl [5,4]; IC50 (L1210 cells [2]; L1210, 96 hour exposure, Trihydrochloride, read-out: IC50 96 hour): 1 to 1.4 µM
CCNCCCCNCCCN [MESPD(N8), N^8-Ethylspermidine Trihydrochloride] | 99.4 | 4825 | > 100 | 40 | 17% of untreated control | 7 | 54% of untreated control | 400% of untreated control | 0 | 26 | 84 | 0 | 15 | 61 | 4.41 | 4.96 | Elaboration to tetraamine (result in words) (L1210 cells [1]; 100 μM analogue, listed as N8-ME-[4,3], Trihydrochloride): no evidence of a tetraamine elaboration metabolite; also recorded: no elaboration of N8-Alkyl [4,3]
CCNCCCNCCCCN [MESPD(N1), N^1-Ethylspermidine Trihydrochloride] | 96.3 | 3946 | > 100 | 3 to 5 | 10 (10) percent of untreated control | 8.6 | 58% of untreated control | 430% of untreated control | 0 | 25 | 80 | 0 | 14 | 53 | 4.20 | 4.73 | 
CCCNCCCCNCCCN [MPSPD(N8), N^8-Propylspermidine Trihydrochloride] | 99.3 | 3549 | > 100 | 50 to 60 | 14% of untreated control | 8.5 | 64% of untreated control | 500% of untreated control | 0 | 33 | 103 | 0 | 16 | 95 | 3.52 | 5.16 | Elaboration to tetraamine (result in words) (L1210 cells [1]; 100 μM analogue, listed as N8-MP-[4,3], Trihydrochloride): no evidence of a tetraamine elaboration metabolite; also recorded: no elaboration of N8-Alkyl [4,3]
CCNCCCNCCCNCC [DENSPD, N^1,N^7-Diethylnorspermidine Trihydrochloride] |  |  | > 100 | 10 | 80% of untreated control | 250 | 45% of untreated control | 780% of untreated control | 0 | 17 | 74 | 0 | 6 to 15 | < 50 | 3.67 | 3.77 | Parent drug as % of total drug in the cell (L1210 cells [1]; 500 μM analogue): 90.7%; Parent drug in L1210 cells (L1210 cells [1]; 500 μM analogue): 3761 pmols/10^6
CNCCCCCNCCCCNC [DM(4,5), 2,7,13-Triazatetradecane Trihydrochloride] |  |  | 2 to 6 | 0.11 to 0.12 | 56% of untreated control | 21 | 71% of untreated control | 130% of untreated control |  |  |  |  |  |  |  |  | N-Monodealkylation (result in words) (L1210 cells [1]; 2 μM analogue): no N-demethylation; Parent drug as % of total drug in the cell (L1210 cells [1]; 2 μM analogue): 100%; Parent drug in L1210 cells (L1210 cells [1]; 2 μM analogue): 2790 pmols/10^6; IC50 (L1210 cells [2]; L1210, 48 hour exposure, Trihydrochloride, read-out: IC50 48 hour): 2 µM; activity at 2 µM (L1210 cells [7]; 2 μM, read-out: Put): 0%; activity at 2 µM (L1210 cells [7]; 2 μM, read-out: Spd): 33%; activity at 2 µM (L1210 cells [7]; 2 μM, read-out: Spm): 112%; activity at 10 µM (L1210 cells [7]; 10 μM, read-out: Put): 0%; activity at 10 µM (L1210 cells [7]; 10 μM, read-out: Spd): 18%; activity at 10 µM (L1210 cells [7]; 10 μM, read-out: Spm): 111%; Analogue (L1210 cells [7]; 2 μM): 2.79 nmol/10^6 cells; Analogue (L1210 cells [7]; 10 μM): 5.36 nmol/10^6 cells
